Source: patent US10737072B2, “Control catheters and methods for pulmonary suffusion and related therapies” (SUFFUSION TECHNOLOGIES LLC, priority 2012, dated 2020)
Read-outs that look alike come from different tables or passages of the source.

Experiments:
[1] = system: stage IV NSCLC; test: Thoracoscopic lung suffusion, phase I clinical trial; type: in vivo, human
Text: The term “suffusion” has been defined as the slow diffuse permeation of the tissues by an injectate during arterial or venous occlusion. Unlike methods for arterial infusion or isolated perfusion, those for suffusion require neither permanent occlusion nor recirculation. The technique involves isolating chemotherapy into the lung by interventional radiologic control of the pulmonary artery and endoscopic control of the pulmonary veins. The suffusion method was first described in a canine model in 2002. A minimally invasive approach and its short-term potential were established using a non-toxic tracer compound. Rapid permeation of the lung and 75% of tracer remaining isolated the lung for 30 minutes was observed.
One phase I clinical trial on four stage IV NSCLC patients has been conducted.

[2] = system: primary and metastatic cancer; conditions: et al., cited from earlier work
[3] = system: primary and metastatic cancer; conditions: et al., cited from earlier work; remark: listed apart in the source
[4] = system: stage IV NSCLC; conditions: cited from earlier work
[5] = Schroder, 2002, 4 cases of metastatic sarcoma, following metastectomy
[6] = Burt, 2000, 8 cases of metastatic sarcoma
[7] = Hendriks, 2004, 16 cases of resectable pulmonary metastases, followed by metastectomy

## N.N.[Cl][Pt][Cl] [Cisplatin]
[1]; total of ten patients treated by suffusion (unpublished data)
  patients who could not tolerate suffusion: One of 10
[1]; unpublished data, growth of tumor in other parts of the body despite systemic chemotherapy
  patients with evaluable disease showing control or reduction of the main tumor in the suffused lung: 4 of 5
[2]; Ratto, 1996, 6 cases of metastatic sarcoma
  Interstitial and alveolar edema (number of cases): (2) cases
[2]; [5]
  disease-free after 1 year: 75% disease-
  localized pulmonary edema (number of cases): (4), reduced cases
  reduced pulmonary function at 3 weeks (number of cases): weeks (3) cases
[3]; So, 2004, 3 cases of locally advanced NSCLC, and carinal resection
  complete response: 100% complete
[4]; Demmy, et al., 2009, 4 cases of stage IV NSCLC, with systemic chemotherapy
  reduction in tumor volume: 14%-96%
[4]; four stage IV NSCLC patients, systemic chemotherapy began within 2 weeks of the suffusion
  Tumor volume reduced: 14% to 96%

## COc1cccc2c1C(=O)c1c(O)c3c(c(O)c1C2=O)C[C@@](O)(C(=O)CO)C[C@@H]3O[C@H]1C[C@H](N)[C@H](O)[C@H](C)O1 [Doxorubicin]
[2]; [6]
  Pulmonary fibrosis (number of cases): fibrosis (1), cases
  reduced pulmonary function (number of cases): function (7) cases
  response: 0% response

## N[C@@H](Cc1ccc(N(CCCl)CCCl)cc1)C(=O)O [Melphalan]
[2]; [7]
  Chemical pneumonitis (number of cases): pneumonitis (2), cases
  localized pulmonary edema (number of cases): (3), pneumonia cases
  pneumonia (number of cases): (1), cases
  pneumothorax (number of cases): pneumothorax (1) cases

## CO[C@@]12[C@H](COC(N)=O)C3=C(C(=O)C(C)=C(N)C3=O)N1C[C@@H]1N[C@@H]12 [Mitomycin C]
[3]; Neyazaki, 1969, 27 cases
  tumor volume reduced in: 52%
